How the values were obtained:
Set-up in all cases: key: 0 = no effect, 10 = maximum effect; letter = response symbol
[1] = system: morningglory; test: Test A post-emergence; type: in vivo, Ipomoea spp.; details: 0.4 kg/ha
Excerpt: (§1) The activity of these compounds was discovered in a number of greenhouse and field tests. The ratings are based on a numerical scale extending from 0=no effect, to 10=maximum effect. The accompanying descriptive symbols have the following meanings:
(§2) Seeds of crabgrass (Digitaria spp.), barnyardgrass (Echinochloa crusgalli), wild oats (Avena fatua), cassia (Cassia tora), morningglory (Ipomoea spp.), cocklebur (Xanthium spp.), sorghum, corn, soybean, rice, wheat and nutsedge tubers (Cyperus rotundus) were planted in a growth medium and treated preemergence with a nonphytotoxic solvent solution of the compounds of Table XII. Other batches of seeds and tubers for all of the foregoing weed and crop plants were planted at the same time as controls. The control plantings were untreated; i.e., neither any compound nor any solvent was applied. At the same time, cotton having five leaves (including cotyledonary ones), bush beans with the third trifoliate leaf expanding, crabgrass with two leaves, barnyardgrass with two leaves, wild oats with two leaves, cassia with three leaves (including cotyledonary ones), morningglory with four leaves (including the cotyledonary ones), cocklebur with four leaves (including the cotyledonary ones), sorghum with four leaves, corn with four leaves, soybean with two cotyledonary leaves, rice with three leaves, wheat with one leaf, and nutsedge with three-five leaves were sprayed with a nonphytotoxic solvent solution of the compounds of Table XII. Other groups of all the same weed and crop plants were sprayed with the same nonphytotoxic solvent so as to provide control plants. Preemergence and postemergence treated plants and controls were maintained in a greenhouse for sixteen days, then all treated plants were compared with their respective controls and rated visually for response to treatment.

[2] = system: bush bean; test: Test A post-emergence; type: in vivo, bush beans; details: 0.4 kg/ha
[3] = system: cassia; test: Test A post-emergence; type: in vivo, Cassia tora; details: 0.4 kg/ha
Excerpt: as §1, §2

[4] = system: cotton; test: Test A post-emergence; type: in vivo; details: 0.4 kg/ha
Excerpt: as §1, §2

[5] = system: corn; test: Test A post-emergence; type: in vivo; details: 0.4 kg/ha
Excerpt: as §1, §2

[6] = system: cocklebur; test: Test A post-emergence; type: in vivo, Xanthium spp.; details: 0.4 kg/ha
Excerpt: as §1, §2

[7] = system: wild oats; test: Test A post-emergence; type: in vivo, Avena fatua; details: 0.4 kg/ha
Excerpt: as §1, §2

[8] = system: nutsedge; test: Test A post-emergence; type: in vivo, Cyperus rotundus; details: 0.4 kg/ha
Excerpt: as §1, §2

[9] = system: cocklebur; test: Test A pre-emergence; type: in vivo, Xanthium spp.
Excerpt: as §1, §2

[10] = system: barnyardgrass; test: Test A pre-emergence; type: in vivo, Echinochloa crusgalli
Excerpt: as §1, §2

[11] = system: wheat; test: Test A pre-emergence; type: in vivo
Excerpt: as §1, §2

[12] = system: soybean; test: Test A pre-emergence; type: in vivo
Excerpt: as §1, §2

[13] = system: corn; test: Test A pre-emergence; type: in vivo
Excerpt: as §1, §2

[14] = system: sorghum; test: Test A pre-emergence; type: in vivo
Excerpt: as §1, §2

[15] = system: cassia; test: Test A pre-emergence; type: in vivo, Cassia tora
Excerpt: as §1, §2

[16] = system: crabgrass; test: Test A pre-emergence; type: in vivo, Digitaria spp.
Excerpt: as §1, §2

[17] = system: wild oats; test: Test A pre-emergence; type: in vivo, Avena fatua
Excerpt: as §1, §2

[18] = system: morningglory; test: Test A pre-emergence; type: in vivo, Ipomoea spp.
Excerpt: as §1, §2

Row | Compound | response rating ([9]; 0.4 kg/ha) | response rating ([10]; 0.4 kg/ha) | response rating ([11]; 0.4 kg/ha) | response rating ([12]; 0.4 kg/ha) | response rating ([13]; 0.4 kg/ha) | response rating ([14]; 0.4 kg/ha) | response rating ([15]; 0.4 kg/ha) | response rating ([16]; 0.4 kg/ha) | response rating ([17]; 0.4 kg/ha) | response rating ([18]; 0.4 kg/ha) | response rating ([9]; 2 kg/ha) | response rating ([11]; 2 kg/ha) | response rating ([13]; 2 kg/ha) | response rating ([14]; 2 kg/ha) | response rating ([15]; 2 kg/ha) | response rating ([17]; 2 kg/ha) | also measured
1 | COc1nc(C)nc(NC(=O)NS(=O)(=O)c2ccccc2C(=O)OC2CCCCC2C)n1 (stereo not shown) |  |  |  |  |  |  |  |  |  |  |  |  |  |  |  |  | response rating [1]: 10C; response rating [2]: 9C; response rating [3]: 9C; response rating [4]: 9C; response rating [5]: 10C; response rating [6]: 9C
2 | COC(=O)c1cc(Cl)ccc1S(=O)(=O)NC(=O)Nc1nc(OC)cc(OC)n1 [drawing 433] |  |  |  |  |  |  |  |  |  |  |  |  |  |  |  |  | response rating [7]: 9G; response rating [1]: 10C; response rating [2]: 9C; response rating [3]: 9C; response rating [4]: 9C; response rating [5]: 6H; response rating [8]: 10C; response rating [6]: 10C
3 | COC(=O)c1ccccc1S(=O)(=O)NC(=O)Nc1nc(C)cc(OC)n1 [drawing 480] | 9G | 9H | 9H | 9H | 10H | 9H | 9G | 9H | 9H | 9G |  |  |  |  |  |  | 
4 | COC(=O)c1ccccc1S(=O)(=O)NC(=O)Nc1nc(OC)cc(OC)n1 [drawing 481] | 9G | 9H | 9H |  | 9H | 9H | 9G | 9H | 9H | 9G |  |  |  |  |  |  | 
5 | COC(=O)c1ccccc1S(=O)(=O)NC(=O)Nc1nnc(C)c(C)n1 [drawing 484] |  |  |  |  |  |  |  |  |  |  | 9G | 9H | 9G | 9H | 9C | 9H | response rating ([10]; 2 kg/ha): 9H; response rating ([12]; 2 kg/ha): 9H; response rating ([18]; 2 kg/ha): 9C
6 | COC(=O)c1ccccc1S(=O)(=O)NC(=O)Nc1ncccn1 [drawing 485] |  |  |  |  |  |  |  |  |  |  | 9G | 8G | 9G | 9G | 9G | 8G | 
7 | COc1cc(C)nc(NC(=O)NS(=O)(=O)c2ccccc2C(=O)OCCCl)n1 [drawing 488] | 9G | 10H | 9H | 9H | 10H | 10H | 9C |  |  | 9C |  |  |  |  |  |  | 
8 | COc1nc(C)nc(NC(=O)NS(=O)(=O)c2ccccc2C(=O)OC(C)C)n1 [drawing 492] | 9G |  | 5G | 9H | 9G |  |  |  | 9G | 9G |  |  |  |  |  |  | 
9 | COC(=O)c1cc(Cl)ccc1S(=O)(=O)NC(=O)Nc1nc(OC)cc(OC)n1 [drawing 500] | 9G | 9H | 3G | 9H | 9H | 9H |  | 5G | 9G | 9G |  |  |  |  |  |  | 
10 | CCCCOC(=O)c1ccccc1S(=O)(=O)NC(=O)Nc1nc(OC)cc(OC)n1 [drawing 506] | 9G | 9H | 9G | 7H |  |  | 9G | 8G | 7G | 9G | 9G | 9G | 9G | 9H | 9C | 8G | response rating ([10]; 2 kg/ha): 9H; response rating ([12]; 2 kg/ha): 9H; response rating ([16]; 2 kg/ha): 7G
